In brackets after ≈: the same amount, converted by molar mass. Read-outs that look alike come from different tables or passages of the source.
Columns and labels:
[1] = system: P. falciparum Dd2 (clone B2) asexual blood stage parasites; assay: P. falciparum Dd2 asexual blood stage SYBR Green-I 72 h proliferation assay (qHTS); assay type: cell-based, Plasmodium falciparum; settings: Plasmodium falciparum, DD2, 72 h, SYBR Green 72 h
[2] = system: P. falciparum Dd2 Cytb G131S; assay: SYBR Green ABS proliferation assay, NCGC00374598 selected clone C11; assay type: cell-based, Plasmodium falciparum; settings: Plasmodium falciparum
Method in brief: (§1)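 72 h SYBR Green-I read; % response = relative growth vs controls. Clones from resistance selection, cloned by limiting dilution; 37 °C, 5% CO2/5% O2/90% N2.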

[3] = system: P. falciparum Dd2 Cytb V259L; assay: SYBR Green ABS proliferation assay, NCGC00473217 selected clone F06; assay type: cell-based, Plasmodium falciparum; settings: Plasmodium falciparum
Method in brief: as §1

[4] = system: P. falciparum Dd2 Cytb A122D; assay: SYBR Green ABS proliferation assay, NCGC00473217 selected clone F12; assay type: cell-based, Plasmodium falciparum; settings: Plasmodium falciparum
Method in brief: as §1

[5] = system: P. falciparum Dd2 Cytb F123L; assay: SYBR Green ABS proliferation assay, NCGC00473217 selected clone G08; assay type: cell-based, Plasmodium falciparum; settings: Plasmodium falciparum
Method in brief: as §1

[6] = Aqueous solubility; assay type: physicochemical; settings: aqueous media
Method: (§2) Pharmacokinetic modeling experiments, parallel artificial membrane permeability assay (PAMPA), solubility, and rat liver microsome stability assessment were performed on all synthetic compounds, as previously described[73]–[75].

[7] = Parallel artificial membrane permeability assay (PAMPA); assay type: in vitro ADME; settings: for PAMPA pH7.4: pH 7.4
Method: as §2

[8] = Rat liver microsomal stability (RLMS); settings: rat liver microsomes; for half-life: rat
Method: as §2

[9] = WT Dd2-B2, read-out: AC50 Log[M] ± SD, Dd2-B2 (parental line) (converted)
[10] = approximate value in μM, read-out: AC50 [μM], Dd2-B2 (parental line) (converted)
[11] = DD2, NCGC00374598 selected clone C11, read-out: AC50 [μM], Cytb G131S (converted)
[12] = DD2, NCGC00374598 selected clone, read-out: AC50 Log[M] ± SD, Cytb G131S (converted)
[13] = DD2, NCGC00473217 selected clone F06, read-out: AC50 [μM], Cytb V259L (converted)
[14] = DD2, NCGC00473217 selected clone, read-out: AC50 Log[M] ± SD, Cytb V259L (converted)
[15] = DD2, NCGC00473217 selected clone F12, read-out: AC50 [μM], Cytb A122D (converted)
[16] = DD2, NCGC00473217 selected clone, read-out: AC50 Log[M] ± SD, Cytb A122D (converted)
[17] = DD2, NCGC00473217 selected clone G08, highest concentration 29 µM, read-out: AC50 [μM], Cytb F123L (converted)
[18] = DD2, NCGC00473217 selected clone, read-out: AC50 Log[M] ± SD, Cytb F123L (converted)

| SMILES | AC50 [1, 9] | AC50 [1, 10] | AC50 [2, 11] | AC50 [2, 12] | AC50 [3, 13] | AC50 [3, 14] | AC50 [4, 15] | AC50 [4, 16] | AC50 [5, 17] | solubility [6] | PAMPA pH7.4 [7] | half-life [8] | PAMPA permeability [7] | Papp ([7]; PAMPA) | AC50 [5, 18] | RLMS T1/2 [8] |
| --- | --- | --- | --- | --- | --- | --- | --- | --- | --- | --- | --- | --- | --- | --- | --- | --- |
| CCCN1C(CC(C)C)=NS(=O)(=O)c2cc(NC(=O)c3sccc3F)ccc21 [NCGC00523542] | 1.58e-06 M | 1.59e-06 M | 1.78 µM | 1.78 µM | 5.43 µM | 5.37 µM | 1.31 µM | 1.32 µM | > 29 µM | < 1 µg/mL | 770 1e-6 cm/s | 4.6 min |  |  |  |  |
| CCCN1C(CC2CCCCC2)=NS(=O)(=O)c2cc(NC(=O)c3ccc(F)cc3)ccc21 [NCGC00532335] | 8.91e-07 M | 8.94e-07 M | 0.861 µM | 0.851 µM | > 29 µM |  | 3.31 µM | 3.31 µM | > 29 µM | < 1 µg/mL | <1 1e-6 cm/s | > 30 min |  |  |  |  |
| CC(C)CC1=NS(=O)(=O)c2cc(NC(=O)c3cccs3)ccc2N1C [NCGC00521057] | 1.86e-06 M | 1.85e-06 M | 0.225 µM | 0.224 µM | > 29 µM |  | > 29 µM |  | > 29 µM | 1.6 µg/mL (≈ 4.24 µM) | 130 1e-6 cm/s | > 30 min | low permeability |  |  |  |
| CCCN1C(CC2CCCCC2)=NS(=O)(=O)c2cc(NC(=O)c3cccs3)ccc21 [NCGC00532404] | 3.55e-07 M | 3.56e-07 M | 0.966 µM | 0.955 µM | 1.5 µM | 1.51 µM | 1.53 µM | 1.51 µM | > 29 µM | < 1 µg/mL |  | 3.4 min |  | < 500 ×10⁻⁶ cm/s |  |  |
| CC(C)CC1=NS(=O)(=O)c2cc(NC(=O)c3ccc(F)cc3)ccc2N1C [NCGC00651713] |  | > 2.9e-05 M | > 29 µM |  | > 29 µM |  | > 29 µM |  | > 29 µM | < 1 µg/mL | <1 1e-6 cm/s | > 30 min |  |  |  |  |
| CCCN1C(CC(C)C)=NS(=O)(=O)c2cc(NC(=O)c3sccc3C)ccc21 [NCGC00521035] | 1.58e-06 M | 1.59e-06 M | 1.65 µM | 1.66 µM | 6.84 µM | 6.76 µM | 2.83 µM | 2.82 µM | > 29 µM | < 1 µg/mL | 1597 1e-6 cm/s | 3.4 min |  |  |  |  |
| CCCN1C(CC(C)C)=NS(=O)(=O)c2cc(NC(=O)c3ccsc3)ccc21 [NCGC00521157] | 2e-06 M | 2e-06 M | 2.08 µM | 2.09 µM | > 29 µM |  | > 29 µM |  | > 29 µM | < 1 µg/mL | 178 1e-6 cm/s | 3.7 min |  |  |  |  |
| CCCN1C(CC(C)C)=NS(=O)(=O)c2cc(NC(=O)Nc3nccs3)ccc21 [NCGC00537523] | 2.14e-06 M | 2.16e-06 M | 2.67 µM | 2.69 µM | 5.23 µM | 5.25 µM | 9.29 µM | 9.33 µM | 9.56 µM | 1.2 µg/mL (≈ 2.85 µM) | 113 1e-6 cm/s | 7.8 min |  |  | 9.55 µM |  |
| CCCN1C(CC(C)C)=NS(=O)(=O)c2cc(NC(=O)c3ccc(Cl)s3)ccc21 [NCGC00523535] | 1.51e-06 M | 1.53e-06 M | 1 µM | 1 µM | 7.1 µM | 7.08 µM | > 29 µM |  | > 29 µM | < 1 µg/mL |  | 3.8 min |  |  |  |  |
| CCCN1C(CC(C)C)=NS(=O)(=O)c2cc(NC(=O)c3ccc(F)cc3)ccc21 [NCGC00521139] | 5.25e-07 M | 5.23e-07 M | 0.355 µM | 0.355 µM | > 29 µM |  | > 29 µM |  | > 29 µM | < 1 µg/mL |  | 6.3 min |  |  |  |  |
| CC(C)CC1=NS(=O)(=O)c2cc(NC(=O)c3ccc(F)s3)ccc2N1C [NCGC00651708] | 1.66e-06 M | 1.68e-06 M | > 29 µM |  | > 29 µM |  | > 29 µM |  | > 29 µM | < 1 µg/mL | 3.07 1e-6 cm/s | > 30 min |  |  |  | much better stability |
| CCCN1C(CC(C)C)=NS(=O)(=O)c2cc(NC(=O)C3CCCC3)ccc21 [NCGC00521158] | 2.69e-06 M | 2.72e-06 M | 4.15 µM | 4.17 µM | 2.16 µM | 2.14 µM | 5.25 µM | 5.25 µM | 11.7 µM | < 1 µg/mL | 726 1e-6 cm/s | 4.8 min |  |  | 11.7 µM |  |
| CN1C(c2ccccc2)=NS(=O)(=O)c2cc(NC(=O)c3ccc(F)s3)ccc21 [NCGC00651712] |  | > 2.9e-05 M | > 29 µM |  | > 29 µM |  | > 29 µM |  | > 29 µM | < 1 µg/mL |  | > 30 min |  |  |  |  |
| CN1C(c2ccccc2)=NS(=O)(=O)c2cc(NC(=O)c3ccc(F)cc3)ccc21 [NCGC00651719] |  | > 2.9e-05 M | > 29 µM |  | > 29 µM |  | > 29 µM |  | > 29 µM | < 1 µg/mL | 3.25 1e-6 cm/s | > 30 min |  |  |  |  |
| CN1C(CC2CCCCC2)=NS(=O)(=O)c2cc(NC(=O)c3ccc(F)s3)ccc21 [NCGC00651709] | 1.48e-06 M | 1.5e-06 M | > 29 µM |  | > 29 µM |  | > 29 µM |  | > 29 µM | < 1 µg/mL |  | 12.9 min |  |  |  |  |
| CCCN1C(CC2CCC2)=NS(=O)(=O)c2cc(NC(=O)c3cccs3)ccc21 [NCGC00537664] | 4.47e-07 M | 4.48e-07 M | 0.466 µM | 0.468 µM | 1.19 µM | 1.2 µM | 1.35 µM | 1.35 µM | > 29 µM | < 1 µg/mL |  | 4.3 min |  |  |  |  |

— publication PMC7822874, “Chemoprotective antimalarials identified through quantitative high-throughput screening of Plasmodium blood and liver stage parasites” (Scientific Reports, 2021)
